From patent publication US20120202885A1, “METHODS, ASSAYS AND COMPOSITIONS FOR TREATING RETINOL-RELATED DISEASES” (ReVision Therapeutics, Inc., priority 2004, published 2012)

Legend:
wild type mice = experiment: HPR given to wild type mice for 5 days, then illumination: serum and ocular retinoids; type: in vivo; settings: 20 mg/kg
Description: In order to ensure that the observed effects of HPR in ABCA4 null mice were not due to the genetic mutation, HPR (20 mg/kg, i.p. in DMSO) was administered to wild type mice for 5 days. Control mice received only the DMSO vehicle. On the final day of HPR treatment, the mice were exposed to constant illumination (1000 lux for 10 min) in order “stimulate” the visual cycle to generate visual chromophore. Immediately following the illumination period, the animals were sacrificed and the concentrations of retinoids in serum and ocular tissue were determined. […] As in the previous study, HPR caused a significant reduction in serum retinol (˜55%), ocular retinol (˜40%) and ocular retinal (˜30%). Although HPR did accumulate within ocular tissues during the treatment period (˜5 μM), no effect on LRAT or Rpe65/isomerase activities was observed.

retinol-RBP-TTR complex = retinol-RBP-TTR complex (Homo sapiens, UniProt P02753); experiment: High-throughput FRET assay for RBP/TTR interaction; type: binding
Text: Reduction of serum retinol and RBP are correlated with concomitant reductions in toxic lipofuscin fluorophores. Because compounds that affect RBP-TTR interaction will directly affect fluorophore levels in the eye, a high-throughput screen for small molecules which prevent interaction of RBP with TTR was developed. This screen employs probe-labeled forms of RBP and TTR which participate in a unique fluorescence resonance energy transfer (FRET) event when complexed. Compounds which interfere with RBP-TTR interaction prevent FRET. Sample spectra taken during the course of this type of assay are shown, in FIG. 4. […] The sample is incubated at 37° C. for 30 min and then illuminated with 330 nm light. The emission spectra are shown in the range of 400-600 nm. HPR binds to RBP and prevents interaction with TTR, and here this property of HPR is utilized here to validate the ability of this screen to detect inhibition of RBP-TTR interaction. […] Additionally, the design of this assay permits discrimination between compounds which interact with RBP versus those which interact with TTR. Thus, by using two distinct excitation energies (280 nm and 330 nm, for protein and retinol, respectively) and implementing simultaneous monitoring of the retinol and TTR-probe fluorescence, the “target” of a presumptive small molecule can be easily determined.
Accordingly, HPR was employed at varied concentrations (from 0-4 μM), using the conditions specified in Example 7, to evaluate the high throughput assay.
The mechanism of action underlying this effect can be explained by the disruption of RBP-TTR interactions. In order to explore this possibility and to further validate the RBP-TTR screen, the effects of all-trans retinoic and 13-cis retinoic acid, using the conditions the conditions specified for analysis of HPR, were examined.

[1] = molecular target: T1, Retinol Binding Protein (RBP) (Homo sapiens, UniProt P02753); experiment: Competition binding assay of HPR against RBP-retinol by fluorescence quenching; settings: physiological temperature; HPR 2 μM (FIG. 9b)
Text: Based upon these findings, we sought to further explore the mechanism(s) of retinol reduction during HPR treatment. A tenable hypothesis is that HPR may displace retinol by competing at the retinol binding site on RBP. […] Therefore, one can measure displacement of retinol from the RBP holoprotein by observing decreases in both protein (340 nm) and retinol (470 nm) fluorescence. We performed a competition binding assay using RBP-retinol/HPR concentrations which were similar to those determined from the 14 day trial at 20 mg/kg HPR described above. […] In the control assays, decreases in retinol fluorescence were associated with concomitant increases in protein fluorescence, see FIG. 9a. This effect was determined to be due to temperature effects as the dissociation constant of RBP-retinol increases (decreased affinity) with increased time at 37 C.

[2] = molecular target: T1, Retinol Binding Protein (RBP); experiment: Fluorescence quenching study of MPR binding to retinol binding protein; settings: 1 μM ligand, 0.5 μM Apo-RBP
Description: Apo-RBP at 0.5 μM was incubated with 0, 0.25, 0.5, 1 and 2 μM of MPR in PBS at room temperature for 1 hour, respectively. As controls, the same concentration of Apo-RBP was also incubated with 1 μM of HPR or 1 μM of atROL. All mixtures contained 0.2% Ethanol (v/v). The emission spectra were measured between 290 nm to 550 nm with excitation wavelength at 280 nm and 3 nm bandpass.

[3] = cited from earlier work

With CC1=C(/C=C/C(C)=C/C=C/C(C)=C/C(=O)Nc2ccc(O)cc2)C(C)(C)CCC1 [HPR, N-(4-hydroxyphenyl)retinamide] the “reduction in ocular retinal” value (wild type mice; i.p. in DMSO, wild type mice) was about 30%, the “reduction in ocular retinol” value (wild type mice; i.p. in DMSO, wild type mice) was about 40% and the “reduction in serum retinol” value (wild type mice; i.p. in DMSO, wild type mice) was about 55%. The “inhibition in synthesis of retinyl esters or visual chromophore” value (wild type mice; i.p., 1000 lux for 10 min) was “no significant inhibition”, the “effect on LRAT or Rpe65/isomerase activities” value (wild type mice; i.p., wild type mice) was “no effect” and the “retinol and TTR-probe fluorescence (loss of RBP-TTR complexation)” value (retinol-RBP-TTR complex; HPR 1 μM, 0.5 μM RBP + 0.5 μM Alexa430-TTR, 37° C. 30 min, 330 nm excitation) was “significantly reduced retinol and TTR-probe fluorescence”. The “inhibition of retinol-RBP-TTR complex formation” value (retinol-RBP-TTR complex; varied concentrations 0-4 μM, FIG. 5) was “dose dependent inhibition”, the “displacement of retinol from the RBP-retinol holoprotein” value [1] was “efficiently displaces retinol” and the “binding to RBP” value [2] was “bind to RBP”. The “serum retinol and RBP” value ([3]; Formelli et al., Torrisi et al.) was “reductions in serum retinol and RBP” and the “reduction in circulating RBP and retinol” value ([3]; several investigators, Berni et al. 1993) was “established in vivo”.
